Laboratory results taken from patent US11731977B2, “SGC stimulators” (Cyclerion Therapeutics, Inc., priority 2016, dated 2023).

Target: T1, sGC enzyme (Homo sapiens, UniProt Q02108+Q02153)
T1 construct: sGC enzyme activity values in HEK cells, determined by the GloSensor assay; host or cells: HEK293 cells stably expressing GloSensor 40F cGMP biosensor
T1 sequence (Q02153 1-619): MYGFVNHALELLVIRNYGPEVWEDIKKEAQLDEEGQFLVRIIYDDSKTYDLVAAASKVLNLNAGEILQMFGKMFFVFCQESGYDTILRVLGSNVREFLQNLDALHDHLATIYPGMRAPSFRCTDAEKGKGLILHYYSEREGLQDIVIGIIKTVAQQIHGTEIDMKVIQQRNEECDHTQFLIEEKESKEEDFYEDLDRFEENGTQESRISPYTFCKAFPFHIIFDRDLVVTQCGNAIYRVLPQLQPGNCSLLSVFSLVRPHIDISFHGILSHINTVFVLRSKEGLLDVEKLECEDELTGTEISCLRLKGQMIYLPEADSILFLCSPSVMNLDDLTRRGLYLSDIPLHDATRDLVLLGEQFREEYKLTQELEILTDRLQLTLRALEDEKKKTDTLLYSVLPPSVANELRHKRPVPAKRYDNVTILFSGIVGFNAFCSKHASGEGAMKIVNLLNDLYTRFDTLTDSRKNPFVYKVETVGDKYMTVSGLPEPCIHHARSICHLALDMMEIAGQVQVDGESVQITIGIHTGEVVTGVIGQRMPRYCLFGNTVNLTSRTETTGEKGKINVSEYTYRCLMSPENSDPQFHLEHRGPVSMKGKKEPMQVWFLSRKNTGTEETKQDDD
T1 sequence (Q02108 1-690): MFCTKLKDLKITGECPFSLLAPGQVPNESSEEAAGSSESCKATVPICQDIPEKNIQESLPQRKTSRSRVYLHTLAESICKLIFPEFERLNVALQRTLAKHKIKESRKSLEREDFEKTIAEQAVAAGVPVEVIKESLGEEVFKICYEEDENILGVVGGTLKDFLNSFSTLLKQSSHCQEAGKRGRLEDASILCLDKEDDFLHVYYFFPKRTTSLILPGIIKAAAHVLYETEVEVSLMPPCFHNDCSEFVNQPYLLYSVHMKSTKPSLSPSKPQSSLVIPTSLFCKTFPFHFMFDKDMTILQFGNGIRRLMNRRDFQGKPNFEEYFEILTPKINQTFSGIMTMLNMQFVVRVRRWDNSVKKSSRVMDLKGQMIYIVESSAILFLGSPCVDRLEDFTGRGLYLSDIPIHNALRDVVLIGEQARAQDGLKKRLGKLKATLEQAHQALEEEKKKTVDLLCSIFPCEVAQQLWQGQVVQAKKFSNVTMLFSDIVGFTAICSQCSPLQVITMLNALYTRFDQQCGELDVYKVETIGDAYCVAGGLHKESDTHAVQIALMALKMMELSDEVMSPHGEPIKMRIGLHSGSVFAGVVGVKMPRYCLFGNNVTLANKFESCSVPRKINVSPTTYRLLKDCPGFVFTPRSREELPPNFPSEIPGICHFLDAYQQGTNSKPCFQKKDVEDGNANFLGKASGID
Assay: cGMP GloSensor cell-based assay, 384-well format (Example 2a)
Settings: HEK293 GloSensor 40F cGMP cells; 10 μM DETA-NONOate; 50% of high control (30 μM Compound Y); read-out: Abs EC50
Excerpt: Human embryonic kidney cells (HEK293) cells expressing GloSensor™ 40F cGMP (Part No: CS182801, Promega) were used to evaluate the activity of test compounds. The luminescent biosensors (engineered luciferase) that were incorporated into these cells detect cGMP formed by the compounds stimulating the sGC enzyme and emit luminescence.
cGMP GloSensor cells were maintained in Dulbecco's Modification of Eagle's Medium (DMEM) supplemented with fetal bovine serum (FBS, 10% final) and hygromycine (200 ug/ml). The day before assay, cells were plated in DMEM with 10% FBS in a 50 μL volume at a density of 1.5×10^4 cells/well in a poly-D-lysine coated 384-well flat white-bottom plate (Corning Cat No 35661). Cells were incubated overnight at 37° C. in a humidified chamber with 5% CO2. The next day, medium was removed and cells were replaced with 40 ul/well of GloSensor™, 2 mM (Promega Cat No E1291). Cells were treated for 90 minutes at 25° C. to allow the substrate to equilibrate in the cells. Test compounds and Diethylenetriamine NONOate (DETA-NONOate, or DETA-NO) was diluted to 3 mM (20×) in serum-free CO2 independent medium and serially diluted at 4× dilutions to create 5× dose curve from which 10 ul was added to the wells (x μM concentration for test compound solution and 10 μM concentration for DETA-NONOate solution; wherein x is one of the following final concentrations: 30000 nM, 7500 nM, 1875 nM, 468.8 nM, 117.2 nM, 29.29 nM, 7.320 nM, 1.830 nM, 0.460 nM, 0.114 nM, and 0.029 nM).
For the kinetics studies, luminescense was measured right away for 0.2 sec per well with Envision (Perkin Elmer). For endpoint SAR screening, data were collected after 55 min incubation at room temperature.
Data were normalized to a high control using the following equation: 100*(Sample−Low Control)/(High Control−Low Control), where the low control is the average of 16 samples treated with 1% DMSO, and the high control is the average of 16 samples treated with 30 μM of Compound Y depicted below. Data were fit using a 4-parameter fit (log(agonist) vs. response—variable slope) using GraphPad Prism Software v.5. n=2 for all compounds. The Absolute (Abs) EC50 was interpolated from the curve fit and is defined as the concentration at which a given compound elicits 50% of the high control response after data normalization as indicated above. Compounds failing to elicit a minimum response of 50% are reported as >30 μM or ND. For compounds run in duplicate or n higher than 2, the result herein given is the geometric mean of the several results obtained.

| Compound | EC50 [µM] |
| --- | --- |
| Fc1cccc(Cc2nc(-c3nc(C(F)(F)F)n[nH]3)cn3ncnc23)c1F [Compound I-18, 8-(2,3-Difluorobenzyl)-6-(3-(trifluoromethyl)-1H-1,2,4-triazol-5-yl)-[1,2,4]triazolo[1,5-a]pyrazine] | ≤ 0.1 |
| Fc1cccc(F)c1Cc1nc(-c2nc(C(F)F)n[nH]2)cn2ccnc12 [Compound I-20, 8-(2,6-Difluorobenzyl)-6-(3-(difluoromethyl)-1H-1,2,4-triazol-5-yl)imidazo[1,2-a]pyrazine] | > 1 |
| Fc1cccc(Cc2nc(-c3nc(C(F)F)n[nH]3)cn3ncnc23)c1 [Compound I-21, 6-(3-(Difluoromethyl)-1H-1,2,4-triazol-5-yl)-8-(3-fluorobenzyl)-[1,2,4]triazolo[1,5-a]pyrazine] | ≤ 0.1 |
| Fc1cccc(Cc2nc(-c3nc(C(F)(F)F)n[nH]3)cn3ncnc23)c1 [Compound I-22, 8-(3-Fluorobenzyl)-6-(3-(trifluoromethyl)-1H-1,2,4-triazol-5-yl)-[1,2,4]triazolo[1,5-a]pyrazine] | ≤ 0.1 |
| Fc1ccc(F)c(Cc2nc(-c3nc(C(F)F)n[nH]3)cn3ncnc23)c1 [Compound I-23, 8-(2,5-Difluorobenzyl)-6-(3-(difluoromethyl)-1H-1,2,4-triazol-5-yl)-[1,2,4]triazolo[1,5-a]pyrazine] | ≤ 0.1 |
| Fc1cc(F)cc(Cc2nc(-c3nc(C(F)(F)F)n[nH]3)cn3ncnc23)c1 [Compound I-24, 8-(3,5-Difluorobenzyl)-6-(3-(trifluoromethyl)-1H-1,2,4-triazol-5-yl)-[1,2,4]triazolo[1,5-a]pyrazine] | ≤ 0.1 |
| Fc1cc(F)cc(Cc2nc(-c3nc(C(F)F)n[nH]3)cn3ncnc23)c1 [Compound I-25, 8-(3,5-Difluorobenzyl)-6-(3-(difluoromethyl)-1H-1,2,4-triazol-5-yl)-[1,2,4]triazolo[1,5-a]pyrazine] | ≤ 0.1 |
| Fc1ccccc1Cc1nc(-c2nc(C(F)F)n[nH]2)cn2ncnc12 [Compound I-26, 6-(3-(Difluoromethyl)-1H-1,2,4-triazol-5-yl)-8-(2-fluorobenzyl)-[1,2,4]triazolo[1,5-a]pyrazine] | ≤ 0.1 |
| Fc1cc(F)cc(Cc2nc(-c3nc(C(F)(F)F)n[nH]3)cn3ccnc23)c1 [Compound I-29, 8-(3,5-Difluorobenzyl)-6-(3-(trifluoromethyl)-1H-1,2,4-triazol-5-yl)imidazo[1,2-a]pyrazine] | ≤ 0.1 |
| Fc1cc(F)cc(Cc2nc(-c3nc(C(F)F)n[nH]3)cn3ccnc23)c1 [Compound I-30, 8-(3,5-Difluorobenzyl)-6-(3-(difluoromethyl)-1H-1,2,4-triazol-5-yl)imidazo[1,2-a]pyrazine] | ≤ 0.1 |
| Cc1cn2cc(-c3nc(C(F)F)n[nH]3)nc(Cc3ccccc3F)c2n1 [Compound I-32, 6-(3-(Difluoromethyl)-1H-1,2,4-triazol-5-yl)-8-(2-fluorobenzyl)-2-methylimidazo[1,2-a]pyrazine] | > 1 |
| Fc1ccc(F)c(Cc2nc(-c3nc(C(F)(F)F)n[nH]3)cn3ncnc23)c1 [Compound I-33, 8-(2,5-Difluorobenzyl)-6-(3-(trifluoromethyl)-1H-1,2,4-triazol-5-yl)-[1,2,4]triazolo[1,5-a]pyrazine] | ≤ 0.1 |
| Cc1c(F)cc(Cc2nc(-c3nc(C(F)(F)F)n[nH]3)cn3ccnc23)cc1F [Compound I-34, 8-(3,5-Difluoro-4-methylbenzyl)-6-(3-(trifluoromethyl)-1H-1,2,4-triazol-5-yl)imidazo[1,2-a]pyrazine] | ≤ 0.1 |
| Cn1cnc2c(Cc3ccccc3F)nc(-c3nc(C(F)(F)F)n[nH]3)nc21 [Compound I-37, 6-(2-Fluorobenzyl)-9-methyl-2-(3-(trifluoromethyl)-1H-1,2,4-triazol-5-yl)-9H-purine] | > 1 |
| Cc1nc(-c2cn3ccnc3c(Cc3ccccc3F)n2)nn1CC(F)(F)F [Compound I-38, 8-(2-fluorobenzyl)-6-(5-methyl-1-(2,2,2-trifluoroethyl)-1H-1,2,4-triazol-3-yl)imidazo[1,2-a]pyrazine] | ≤ 0.1 |

More lines, now with the values ahead:

| EC50 [µM] | Compound |
| --- | --- |
| 0.1 to 1 | Fc1ccccc1Cc1nc(-c2nc(C3CC3(F)F)n[nH]2)cn2ccnc12 (racemic) [Compound I-64, rac-6-(3-(2,2-Difluorocyclopropyl)-1H-1,2,4-triazol-5-yl)-8-(2-fluorobenzyl)imidazo[1,2-a]pyrazine] |
| 0.1 to 1 | Cc1n[nH]c(-c2cn3ccnc3c(Cc3ccccc3F)n2)n1 [Compound I-4, 8-(2-fluorobenzyl)-6-(3-methyl-1H-1,2,4-triazol-5-yl)imidazo[1,2-a]pyrazine] |
| ≤ 0.1 | Fc1cccc(Cc2nc(-c3nc(C(F)F)n[nH]3)cn3ncnc23)c1F [Compound I-17, 8-(2,3-Difluorobenzyl)-6-(3-(difluoromethyl)-1H-1,2,4-triazol-5-yl)-[1,2,4]triazolo[1,5-a]pyrazine] |
| > 1 | Fc1cccc(F)c1Cc1nc(-c2nc(C(F)(F)F)n[nH]2)cn2ccnc12 [Compound I-19, 8-(2,6-Difluorobenzyl)-6-(3-(trifluoromethyl)-1H-1,2,4-triazol-5-yl)imidazo[1,2-a]pyrazine] |
| 0.1 to 1 | Cc1cn2cc(-c3nc(C(F)(F)F)n[nH]3)nc(Cc3ccccc3F)c2n1 [Compound I-31, 8-(2-Fluorobenzyl)-2-methyl-6-(3-(trifluoromethyl)-1H-1,2,4-triazol-5-yl)imidazo[1,2-a]pyrazine] |
| ≤ 0.1 | Cc1c(F)cc(Cc2nc(-c3nc(C(F)F)n[nH]3)cn3ccnc23)cc1F [Compound I-35, 8-(3,5-Difluoro-4-methylbenzyl)-6-(3-(difluoromethyl)-1H-1,2,4-triazol-5-yl)imidazo[1,2-a]pyrazine] |
| > 1 | Cn1cnc2c(Cc3ccccc3F)nc(-c3nc(C(F)(F)F)n[nH]3)cc21 [Compound I-36, 4-(2-Fluorobenzyl)-1-methyl-6-(3-(trifluoromethyl)-1H-1,2,4-triazol-5-yl)-1H-imidazo[4,5-c]pyridine] |
| ≤ 0.1 | Cc1nc(-c2cn3ccnc3c(Cc3ccccc3F)n2)nn1Cc1ccc(F)cc1 [Compound I-41, 8-(2-Fluorobenzyl)-6-(1-(4-fluorobenzyl)-5-methyl-1H-1,2,4-triazol-3-yl)imidazo[1,2-a]pyrazine] |
